Experimental data: patent EP2077260B1, “AMIDE COMPOUND OR SALT THEREOF, AND BIOFILM FORMATION INHIBITOR, BIOFILM REMOVER AND BACTERICIDE EACH USING THE AMIDE COMPOUND OR SALT THEREOF” (The University of Tokyo, priority 2006, dated 2008)
Converted amounts (≈) assume the structure as drawn. Counter-ions that a name gives are not always drawn. Like-named read-outs stand apart in the source and are kept apart here.

Legend:
Format in all cases: cell-based
[1] = tested on: Porphyromonas gingivalis 381-strain (clinical strain); experiment: Evaluation test for biofilm formation inhibition effect against periodontitis pathogenic bacteria (flow cell system, HA disks, turbidity); settings: for Mean OD Value: turbidity at 550 nm of biofilm peeled off HA disks; for inhibition at 100 µM: Porphyromonas gingivalis, 336 h, read-out: Biofilm Formation Inhibition Rate(%)
Experimental: As with Experiment Example 1, using the flow cell system of FIG. 1, an inhibitory effect against biofilm formation by periodontitis pathogenic bacteria was evaluated for each of the amide compounds produced in Production Examples 1, 3, 5, and 6 (Compounds 1a-1, 1b-1, 1c-1, 1c-2).
Periodontitis pathogenic bacteria Porphyromonas gingivalis 381-strain (clinical strain) was used..
A GAM culture medium containing hemin 5µg/L and menadione 1µg/L was used.
The 381-strain was inoculated in the GAM culture medium, and cultivated until stationary phase (OD550=1.8). Then the culture medium was diluted 20-fold by a fresh GAM culture medium containing the above-mentioned substances.
The test liquid was prepared by dissolving 100µM of each of the Compounds 1a-1, 1b-1, 1c-1, or 1c-2 according to Production Examples 1, 3, 5 and 6 and 100µM of Comparative Compounds 1 and 2 as comparative examples in dimethyl sulfoxide (DMSO), and supplying the resulting DMSO solutions to the above-mentioned bacterial suspensions so that the concentration of each compound becomes 0.1%(v/v).
A DMSO not containing the compound was used as a control test liquid.
The glass cell (4) of the flow cell system (see FIG. 1) was replaced with a stainless cell (3 x 7 x 120mm), and 10 hydroxyapatite (HA) disks (6mm in diameter, 1mm in thickness) were placed in the cell. The HA disks had been subjected to salivary treatment overnight. Each of the test liquids and control test liquids was circulated in the system at a flow rate of 8mL/min for 14 days, Note that the test liquids and the control test liquids were replaced with fresh liquids every two days.
After the cultivation, the HA disks were dipped in 300µL of sterile distilled water, and treated by supersonic wave for 30 minutes at 4°C, The biofilms formed in the HA disks were peeled off and suspended in distilled water. Then, 100µL of the suspension liquid was measured for the turbidity with an absorptiometer (C07500 colorimeter, product of Funakoshi) (measurement wavelength = 550 nm).
A mean OD was found based on the resulting OD values, excluding the minimum and maximum values, Also, a mean value of the turbidities for the Control Test Liquids was found in the same manner as the control mean OD value. A biofilm formation inhibition rate (Inhibition Rate) was found by the following formula. Biofilm Formation Inhibition Rate (%) = […] [formula]

[2] = tested on: Pseudomonas aeruginosa PAO1; experiment: Evaluation test for disinfecting effect, broth dilution method CLSI(M7-A7)2006
From the text: (§1) The following test compounds were examined for the disinfecting activities against Pseudomonas aeruginosa, E.. Coli and staphylococcus aureus, according to a broth dilution method of "CLSI(M7-A7)2006" (Clinical and Laboratory Standards Institute, M7-A7, Methods for Dilution Antimicrobial Susceptibility Tests for Bacteria That Grow Aerobically; Approved Standard-Seventh Edition, 2006),
(§2) • Pseudomonas aeruginosa PAO1 • Pseudomonas aeruginosa ATCC 27853 • Escherichia coli ATCC 25922 • Staphylococcus aureus ATCC 29213 • Staphylococcus aureus Methicillin resistant (MRSA) ATCC 43300
(§3) Each of above-mentioned bacteria was inoculated in a TSB culture medium (Bacto TSB Broth, product of BD) for overnight cultivation at 37°C. The culture solution was applied to a TSB agar plate for about a 20-hour cultivation to form colonies. Three to five colonies were taken from the agar plate, and an average colony of them was inoculated in a 4mL TSB culture medium.. The colony was cultivated at 35°C until the number of microorganisms became 1 × 10^8 to 2 x 10^8 CFU/mL. The number of microorganisms with time was found by measuring changes in absorbency at 590nm of culture solution with time. When the turbidity became equivalent to 0.5 McFarland standard, it was determined that the number of microorganisms reached the target level = 1 × 10^8 to 2 × 10^8 CFU/mL.
(§4) The bacillus culture solution thus obtained was diluted 10-fold within 15 minutes, and a 5µL portion was inoculated in each well of an evaluation 96-well microplate. This 96-well microplate was a sterilized 96-well microplate with U-shaped bottoms (Falcon 35-3918: product of BD), and each well was filled with a 100µL portion of MH culture medium (BBL MH Broth: product of BD). Within 15 minutes after inoculation of the bacillus culture solutions, the test compounds were supplied to the well in a manner of 2-fold graded dilution. The cultivation was then carried out at 37°C for 18 hours.
(§5) The MIC was determined as follows. "S (susceptible)" indicates a concentration which caused 80% or more reduction in the diameter of the aggregation deposited in the bottom of the well, compared to when the test liquid is not used. "R (Resistant)" indicates a concentration that caused less than 80% reduction in diameter. The reduction was measured visually.. "I(Intermediate)" indicates a concentration that cannot be measured visually

[3] = tested on: Escherichia coli ATCC 25922; experiment: as above
From the text: as §1, §2, §3, §4, §5

[4] = tested on: Staphylococcus aureus ATCC 29213; experiment: as above
From the text: as §1, §2, §3, §4, §5

[5] = tested on: Pseudomonas aeruginosa ATCC 27853; experiment: as above
From the text: as §1, §2, §3, §4, §5

[6] = tested on: Staphylococcus aureus Methicillin resistant (MRSA) ATCC 43300; experiment: as above
From the text: as §1, §2, §3, §4, §5

[7] = PAO1, 18 h, read-out: MIC (µg/mL) I
[8] = PAO1, 18 h, read-out: MIC (µg/mL) R
[9] = PAO1, 18 h, read-out: MIC (µg/mL) S
[10] = ATCC25922, 18 h, read-out: MIC (µg/mL) R
[11] = ATCC25922, 18 h, read-out: MIC (µg/mL) S
[12] = ATCC29213, 18 h, read-out: MIC (µg/mL) I
[13] = ATCC29213, 18 h, read-out: MIC (µg/mL) R
[14] = ATCC29213, 18 h, read-out: MIC (µg/mL) S
[15] = ATCC27853, 18 h, read-out: MIC (µg/mL) I
[16] = ATCC27853, 18 h, read-out: MIC (µg/mL) R
[17] = ATCC27853, 18 h, read-out: MIC (µg/mL) S
[18] = 100µM, 14 days, relative to control test liquid (Mean Comparison OD Value)

Row | SMILES | Mean OD Value ([1]; 100µM, 14 days) | MIC [2, 8] [µg/mL] | MIC [2, 9] [µg/mL] | MIC [3, 10] [µg/mL] | MIC [3, 11] [µg/mL] | MIC [4, 13] [µg/mL] | MIC [4, 14] [µg/mL] | MIC [5, 16] [µg/mL] | MIC [5, 17] [µg/mL] | MIC ([6]; 18 h, read-out: MIC (µg/mL) R) [µg/mL] | MIC ([6]; 18 h, read-out: MIC (µg/mL) S) [µg/mL] | further results
1 | CCCCCCCCCCCC(=O)NC1CCNCC1 [Compound 1b-1, N-(piperidin-4-yl) dodecanoyl amide] | 0.32 |  |  |  |  |  |  |  |  |  |  | inhibition at 100 µM [1]: 19.1%
2 | CCCCCCCCCCCC(=O)NC1CCNCC1 [Hydrochloride salt of Compound 1b-1, N-(piperidin-4-yl) dodecanoyl amide] |  | ≤ 32 | ≥ 128 | ≤ 8 | ≥ 16 | ≤ 4 | ≥ 16 | ≤ 32 | ≥ 128 | ≤ 4 | ≥ 16 | MIC [2, 7]: 64 µg/mL; MIC [4, 12]: 8 µg/mL; MIC [5, 15]: 64 µg/mL; MIC ([6]; 18 h, read-out: MIC (µg/mL) I): 8 µg/mL
3 | CCCCCCCCCCCC(=O)NN1CCCC1 [Compound 1c-1, N-(pyrrolidin-1-yl) dodecanoyl amide] | 0.522 |  |  |  |  |  |  |  |  |  |  | inhibition at 100 µM [1, 18]: 11%
4 | CCCCCCCCCCCC(=O)NC1CCNC1 (stereo not shown) [Compound 1a-1, N-(pyrrolidin-3-yl) dodecanoyl amide] | 0.49 |  |  |  |  |  |  |  |  |  |  | inhibition at 100 µM [1]: 37.4%
5 | CCCCCCCCCC(=O)NC1CCNCC1 [Hydrochloride salt of Compound 1b-2, N-(piperidin-4-yl) decanoyl amide] |  | ≤ 512 | ≥ 1020 | ≤ 128 | ≥ 256 | ≤ 128 | ≥ 256 | ≤ 512 | ≥ 1020 | ≤ 128 | ≥ 256 | 
6 | CCCCCCCCCC(O)CC(=O)NN1CCCC1 (stereo not shown) [Compound 1c-2, N-(pyrrolidin-1-yl)-3-hydroxy dodecanoyl amide] | 0.041 |  |  |  |  |  |  |  |  |  |  | inhibition at 100 µM [1, 18]: 87.8%
7 | CCCCCCCCCCCC(=O)NC1CCNC1 (stereo not shown) [Hydrochloride salt of Compound 1a-1, N-(pyrrolidin-3-yl) dodecanoyl amide] |  | ≤ 32 | ≥ 128 | ≤ 4 | ≥ 16 | ≤ 4 | ≥ 16 | ≤ 32 | ≥ 128 | ≤ 4 | ≥ 16 | MIC [2, 7]: 64 µg/mL; MIC ([3]; ATCC25922, 18 h, read-out: MIC (µg/mL) I): 8 µg/mL; MIC [4, 12]: 8 µg/mL; MIC [5, 15]: 64 µg/mL; MIC ([6]; 18 h, read-out: MIC (µg/mL) I): 8 µg/mL
8 | CCCCCCCCCC(=O)NC1CCNC1 (stereo not shown) [Hydrochloride salt of Compound 1a-2, N-(pyrrolidin-3-yl) decanoyl amide] |  | ≤ 512 | ≥ 1020 | ≤ 128 | ≥ 256 | ≤ 128 | ≥ 256 | ≤ 512 | ≥ 1020 | ≤ 128 | ≥ 256 | 
9 | CC1(C)S[C@@H]2[C@H](NC(=O)C(C(=O)O)c3ccccc3)C(=O)N2[C@H]1C(=O)O (stereo partly shown) [CBPC, Carbenicillin] |  |  |  |  |  |  |  |  |  |  |  | MIC ([2]; PAO1, R (Resistant): concentration that caused less than 80% reduction in diameter of the aggregation, 37°C, 18 hours, read-out: MIC (µg/mL) R): ≤ 64 µg/mL; MIC ([2]; PAO1, S (susceptible): concentration which caused 80% or more reduction in diameter of the aggregation, 37°C, 18 hours, read-out: MIC (µg/mL) S): ≥ 128 µg/mL; MIC ([3]; ATCC25922, I (Intermediate): concentration that cannot be measured visually, 37°C, 18 hours, read-out: MIC (µg/mL) I): 16 µg/mL (≈ 42.3 µM); MIC ([3]; ATCC25922, R (Resistant): concentration that caused less than 80% reduction in diameter of the aggregation, 37°C, 18 hours, read-out: MIC (µg/mL) R): ≤ 8 µg/mL; MIC ([3]; ATCC25922, S (susceptible): concentration which caused 80% or more reduction in diameter of the aggregation, 37°C, 18 hours, read-out: MIC (µg/mL) S): ≥ 32 µg/mL; MIC ([4]; ATCC29213, R (Resistant): concentration that caused less than 80% reduction in diameter of the aggregation, 37°C, 18 hours, read-out: MIC (µg/mL) R): ≤ 8 µg/mL; MIC ([4]; ATCC29213, S (susceptible): concentration which caused 80% or more reduction in diameter of the aggregation, 37°C, 18 hours, read-out: MIC (µg/mL) S): ≥ 16 µg/mL; MIC ([5]; ATCC27853, I (Intermediate): concentration that cannot be measured visually, 37°C, 18 hours, read-out: MIC (µg/mL) I): 128 µg/mL (≈ 338 µM); MIC ([5]; ATCC27853, R (Resistant): concentration that caused less than 80% reduction in diameter of the aggregation, 37°C, 18 hours, read-out: MIC (µg/mL) R): ≤ 64 µg/mL; MIC ([5]; ATCC27853, S (susceptible): concentration which caused 80% or more reduction in diameter of the aggregation, 37°C, 18 hours, read-out: MIC (µg/mL) S): ≥ 256 µg/mL; MIC ([6]; I (Intermediate): concentration that cannot be measured visually, 37°C, 18 hours, read-out: MIC (µg/mL) I): 32 µg/mL (≈ 84.6 µM); MIC ([6]; R (Resistant): concentration that caused less than 80% reduction in diameter of the aggregation, 37°C, 18 hours, read-out: MIC (µg/mL) R): ≤ 16 µg/mL; MIC ([6]; S (susceptible): concentration which caused 80% or more reduction in diameter of the aggregation, 37°C, 18 hours, read-out: MIC (µg/mL) S): ≥ 64 µg/mL
